Source: patent US7718651B2, “Inhibitors of FtsZ and uses thereof” (priority 2002, dated 2010)
Like-named read-outs stand apart in the source and are kept apart here.

System: M. tuberculosis H37Rv
Assay: microbe, parasite or virus in culture
Type: cell-based
[1] = M. tuberculosis H37Rv, screen concentration 12.5 g/ml [sic], Table 8

Structure (SMILES) | % Inh [1] | other results
COC(=O)Nc1cc(Cl)c([N+](=O)[O-])c(NC(=O)OC)n1 [Compound A165] | 8% | 
CCOC(=O)Nc1cc(NCC(O)CN)c([N+](=O)[O-])c(NC(=O)OCC)n1 (stereo not shown) [Compound A271] | 0% | 
CCOC(=O)Nc1cc2[nH]c(-c3ccc(OC)cc3)nc2c(N)n1 [Compound A114] | 41% | 
CCOC(=O)Nc1cc(NCCc2ccccc2)c(N)c(N)n1.Cl.Cl [Compound A95] | 59% | 
CCCCOC(=O)Nc1cc(NC(c2ccccc2)c2ccccc2)c2nc(-c3cc(OC)c(OC)c(OC)c3)c(-c3cc(OC)c(OC)c(OC)c3)nc2n1 [Compound A267] | 0% | 
CCOC(=O)Nc1cc2nc(-c3ccccc3)c(-c3ccccc3)nc2c(N)n1 [Compound 3302-89F, (5-Amino-2,3-diphenyl-pyrido[3,4-b]pyrazin-7-yl)-carbamic acid ethyl ester] |  | inhibition of growth at 12.5 µg/mL (Mycobacterium tuberculosis, M. tuberculosis H37Rv, at 12.5% μg/ml (so in the source), read-out: Primary Screen PI (% inhibition of growth)): 92%; activity against M. tuberculosis H37Rv in the primary screen (in words): demonstrated activity
CCOC(=O)Nc1cc(NCC(O)CN(C)c2ccccc2)c([N+](=O)[O-])c(N)n1 (stereo not shown) [Compound A101] | 54% | 
CCOC(=O)Nc1ccc(N)c(N)n1 [Compound A236] | 0% | 
CCOC(=O)Nc1cc(Cl)c([N+](=O)[O-])c(NC(=O)OCC)n1 [Compound A94] | 59% | 
CCOC(=O)Nc1cc(N)c2nc[nH]c2n1 [Compound A217] | 0% | 
CCOC(=O)Nc1cc(NCCc2ccc(S(=O)(=O)N(CC)CC)cc2)c2nccnc2n1 [Compound A252] | 0% | 
Nc1nc(NC(=O)OCc2ccccc2)cc(Cl)c1[N+](=O)[O-] [Compound A286] | 0% | 
CCOC(=O)Nc1cc(N)c([N+](=O)[O-])c(NCC(O)CN(C)c2ccccc2)n1 (stereo not shown) [Compound A274] | 0% | 
CCOC(=O)Nc1cc(NCC(O)CN(C)c2ccc(C)cc2)c([N+](=O)[O-])c(N)n1.Cl (stereo not shown) [Compound A62] | 86% | 
CCOC(=O)Nc1cc(NCC(=O)c2ccc(C)c(C)c2)c([N+](=O)[O-])c(N)n1 [Compound A208] | 0% | 
CCOC(=O)Nc1cc(NCC(O)CN(C)c2ccc(Cl)cc2)c([N+](=O)[O-])c(N)n1 (stereo not shown) [Compound A122] | 31% | 
CCOC(=O)Nc1cc2c(c(N)n1)N=C(c1ccccc1)[C@H](C)N2 [Compound A108] |  | % Inh: 45%
CCOC(=O)Nc1cc(N)c2c(n1)NCC(C)=N2 [Compound A283] | 0% | 
CCOC(=O)Nc1cc(Nc2ccc(Cl)cc2)c2nc(-c3ccccc3)c(-c3ccccc3)nc2n1 [Compound A257] | 0% | 

Structure (SMILES) | % Inh [1] | other results
CCOC(=O)Nc1cc(NC(c2ccccc2)c2ccccc2)c2nc(-c3ccccc3)c(-c3ccccc3)nc2n1 [Compound A119] | 36% | 
CCOC(=O)Nc1cc2c(c(N)n1)N=C(CN(C)c1ccccc1)CN2 [Compound A45] | 93% | 
CCOC(=O)Nc1cc2c(c(N)n1)[N+](=O)OC(c1ccccc1)N[N-]2 (stereo not shown) [Compound A214] | 0% | 
CCOC(=O)Nc1cc2c(c(N)n1)N=C(c1ccccc1)[C@H](C)N2 [Compound A129] |  | % Inh: 28%
CCOC(=O)Nc1cc(NC(CC)C(O)c2ccccc2)c([N+](=O)[O-])c(N)n1 (stereo not shown) [Compound A301] | −1% | 
CCOC(=O)Nc1cc(N)c2ncc(-c3cc(OC)c(OC)c(OC)c3)nc2n1 [Compound A147] | 15% | 
CCOC(=O)Nc1cc(NC/C(=N/O)c2ccc([N+](=O)[O-])cc2)c([N+](=O)[O-])c(N)n1 [Compound A238] | 0% | 
CCOC(=O)Nc1cc(NCCCCc2ccccc2)c([N+](=O)[O-])c(N)n1 [Compound A90] | 62% | 
CCOC(=O)Nc1cc2c(c(N)n1)N=C(c1ccc3ccccc3c1)CS2 [Compound A97] | 58% | 
CCOC(=O)Nc1cc2c(c(N)n1)N=C(c1ccc(O)cc1)C(C)N2 (stereo not shown) [Compound A197] | 0% | 
CCOC(=O)Nc1cc2[nH]c(-c3ccc(CC)cc3)nc2c(N(CCc2ccccc2)Cc2ccccc2)n1 [Compound A17] | 98% | 
CCOC(=O)Nc1cc(NCC(=O)c2ccc(C(F)(F)F)cc2)c([N+](=O)[O-])c(N)n1 [Compound A222] | 0% | 
CCOC(=O)Nc1cc(NC(C)CCCN(CC)CC)c2ncc(C)nc2n1 (stereo not shown) [Compound A254] | 0% | 
CCOC(=O)Nc1cc(NC(c2ccccc2)c2ccccc2)c2nc[nH]c2n1 [Compound A216] | 0% | 
CCOC(=O)Nc1cc(NC(c2ccccc2)c2ccccc2)c([N+](=O)[O-])c(O)n1 [Compound A298] | 0% | 
CCOC(=O)Nc1cc(NC(C)/C(=N/O)c2ccc(NC)cc2)c([N+](=O)[O-])c(N)n1 (stereo not shown) [Compound A144] | 16% | 
CCOC(=O)Nc1cc2c(c(N)n1)N=C(c1cccc(OC)c1)CO2 [Compound A190] | 0% | 
CCOC(=O)Nc1cc2c(c(N)n1)N=C(c1ccc(Cl)cc1)CO2 [Compound A226] | 0% | 
CCCCC1Nc2cc(NC(=O)OCC)nc(N)c2N=C1C (stereo not shown) [Compound A87] | 64% | 

Structure (SMILES) | % Inh [1] | other results
CCCCC(Nc1cc(NC(=O)OCC)nc(N)c1N)C(C)O (stereo not shown) [Compound A174] | 5% | 
CCOC(=O)Nc1nc(NC(=O)OCC)c([N+](=O)[O-])c(Cl)c1[N+](=O)[O-] [Compound A202] | 0% | 
CCOC(=O)Nc1cc(NC(C)CCCN(CC)CC)c2nccnc2n1 (stereo not shown) [Compound A253] | 0% | 
CCOC(=O)Nc1cc2c(c(N)n1)N=C(c1cccc(N)c1)C(C)N2 (stereo not shown) [Compound A167] | 7% | 
CCOC(=O)Nc1cc2ncc(CNc3ccc(C(=O)OCC)cc3)nc2c(N)n1 [Compound A289] | 0% | 
CCOC(=O)Nc1cc(NC(c2ccccc2)c2ccccc2)c([N+](=O)[O-])c(NC/C(=N/O)c2ccc(Cl)cc2)n1 [Compound A130] | 28% | 
CCOC(=O)Nc1cc(Cl)c2nn[nH]c2n1 [Compound A215] | 0% | 
Br.CCOC(=O)Nc1cc(N)c([N+](=O)[O-])c(NCC(C)=O)n1 [Compound A75] | 72% | 
CCOC(=O)Nc1cc(N)c2ncn(-c3ccccc3)c2n1 [Compound A103] | 53% | 
CCOC(=O)Nc1cc(NC(C)[C@H](O)c2ccccc2)c(N)c(N)n1 (stereo partly shown) [Compound A99] | 56% | 
CCOC(=O)Nc1cc(NNC=O)c([N+](=O)[O-])c(N)n1 [Compound A205] | 0% | 
CCOC(=O)Nc1cc(Cl)c2nc(-c3ccccc3)[nH]c2n1 [Compound A234] | 0% | 
CCOC(=O)Nc1cc2[nH]cnc2c(NC(=O)OCC)n1.Cl [Compound A278] | 0% | 
CCCCNC(=O)Oc1ccc(C2=Nc3c(cc(NC(=O)OCC)nc3N)N[C@@H]2C)cc1 [Compound A171] | 7% | 
CCOC(=O)Nc1cc(NCC(=O)CN(C)c2ccccc2)c([N+](=O)[O-])c(N)n1 [Compound A143] | 17% | 
CCOC(=O)Nc1cc2[nH]c(-c3ccc4c(c3)OCO4)nc2c(N(CCc2ccccc2)Cc2ccccc2)n1 [Compound A151] | 14% | 
CCOC(=O)Nc1cc(N/N=C/c2ccccc2)c2[nH]c(=S)[nH]c2n1 [Compound A71] | 75% | 
CCOC(=O)Nc1cc(NC/C(CCc2ccccc2)=N\O)c([N+](=O)[O-])c(N)n1 [Compound A136] | 21% | 
CCOC(=O)Nc1cc(NC/C(CNc2ccc(C(=O)OCC)cc2)=N/O)c([N+](=O)[O-])c(N)n1 [Compound A291] | 0% | 
